For this test, the system named is MV-4-11 cells. The experiment in a line: Gene expression microarray analysis (Affymetrix PrimeView) and GSEA. The note with it: MV-4-11 cells, 48 hours. Type of test: cell-based, human. On the set-up: RFU PODN (11730768_x_at) / Fold change /veh PODN (11730768_x_at) / RFU LINC00158 (11744669_a_at) / Fold change /veh LINC00158 (11744669_a_at) / RFU DUSP10 (11751237_a_at) / Fold change /veh DUSP10 (11751237_a_at) / RFU ID3 (11757404_x_at) / Fold change /veh ID3 (11757404_x_at) / RFU PLEKHG5 (11737974_s_at) / Fold change /veh PLEKHG5 (11737974_s_at) / RFU LRRC4B (11730491_at) / Fold change /veh LRRC4B (11730491_at) / RFU GIMAP4 (11747438_a_at) / Fold change /veh GIMAP4 (11747438_a_at) / RFU KRT8 (11758183_x_at) / Fold change /veh KRT8 (11758183_x_at) / RFU CNN1 (11734310_a_at) / Fold change /veh CNN1 (11734310_a_at) / RFU VPS37D (11726825_at) / Fold change /veh VPS37D (11726825_at) / RFU C10orf10 (11716522_x_at) / Fold change /veh C10orf10 (11716522_x_at) / RFU KIR2DL2 /// KIR2DL4 /// KIR2DL5A /// KIR2DL5B /// KIR2DS1 /// KIR2DS2 /// KIR2DS3 /// KIR2DS4 /// KIR3DL3 /// KIR3DL3 /// KIR3DS1 (11738374_at) / Fold change /veh KIR2DL2 /// KIR2DL4 /// KIR2DL5A /// KIR2DL5B /// KIR2DS1 /// KIR2DS2 /// KIR2DS3 /// KIR2DS4 /// KIR3DL3 /// KIR3DL3 /// KIR3DS1 (11738374_at) / RFU C1QL1 (11718748_at) / Fold change /veh C1QL1 (11718748_at) / RFU TMPRSS4 (11747572_a_at) / Fold change /veh TMPRSS4 (11747572_a_at) / RFU HAMP (11756126_x_at) / Fold change /veh HAMP (11756126_x_at) / RFU RNFT2 (11725882_a_at) / Fold change /veh RNFT2 (11725882_a_at) / RFU NR4A2 (11747474_a_at) / Fold change /veh NR4A2 (11747474_a_at) / RFU ABCC12 (11746883_a_at) / Fold change /veh ABCC12 (11746883_a_at) / RFU TMEM136 (11760407_x_at) / Fold change /veh TMEM136 (11760407_x_at) / RFU CLDN22 /// WWC2 (11732394_at) / Fold change /veh CLDN22 /// WWC2 (11732394_at) / RFU HLA-DPB1 (11760878_x_at) / Fold change /veh HLA-DPB1 (11760878_x_at) / RFU SPINT1 (11716480_a_at) / Fold change /veh SPINT1 (11716480_a_at) / RFU GAP43 (11754022_s_at) / Fold change /veh GAP43 (11754022_s_at) / RFU A4GNT (11735810_at) / Fold change /veh A4GNT (11735810_at) / RFU PRB3 (11715151_x_at) / Fold change /veh PRB3 (11715151_x_at) / RFU TUBB4B (11761932_at) / Fold change /veh TUBB4B (11761932_at) / RFU CAPN14 (11732068_a_at) / Fold change /veh CAPN14 (11732068_a_at) / RFU TMCC2 (11721928_a_at) / Fold change /veh TMCC2 (11721928_a_at) / RFU IRGQ (11745062_a_at) / Fold change /veh IRGQ (11745062_a_at) / RFU FAM174B (11720279_a_at) / Fold change /veh FAM174B (11720279_a_at) / RFU TMPRSS4 (11748680_a_at) / Fold change /veh TMPRSS4 (11748680_a_at) / RFU FAM212B (11763350_a_at) / Fold change /veh FAM212B (11763350_a_at) / RFU PLEKHG5 (11743358_a_at) / Fold change /veh PLEKHG5 (11743358_a_at) / RFU ZSCAN30 (11745921_a_at) / Fold change /veh ZSCAN30 (11745921_a_at) / RFU CMKLR1 (11741424_a_at) / Fold change /veh CMKLR1 (11741424_a_at) / RFU LOC101060620 /// MAPK8IP1 (11723275_at) / Fold change /veh LOC101060620 /// MAPK8IP1 (11723275_at) / RFU SPTSSB (11747773_x_at) / Fold change /veh SPTSSB (11747773_x_at) / RFU PRSS12 (11739890_at) / Fold change /veh PRSS12 (11739890_at) / RFU BIN1 (11741810_x_at) / Fold change /veh BIN1 (11741810_x_at) / RFU WNT11 (11732464_a_at) / Fold change /veh WNT11 (11732464_a_at) / RFU C10orf10 (11716521_a_at) / Fold change /veh C10orf10 (11716521_a_at) / RFU C5orf56 (11738089_at) / Fold change /veh C5orf56 (11738089_at) / RFU CYB561 (11721691_x_at) / Fold change /veh CYB561 (11721691_x_at) / RFU ANKRD19P (11752326_a_at) / Fold change /veh ANKRD19P (11752326_a_at) / RFU OR2T12 /// OR2T33 /// OR2T8 (11738714_s_at) / Fold change /veh OR2T12 /// OR2T33 /// OR2T8 (11738714_s_at) / RFU VCAN (11748164_a_at) / Fold change /veh VCAN (11748164_a_at) / RFU JSRP1 (11732532_at) / Fold change /veh JSRP1 (11732532_at) / RFU KRTAP10-11 (11738290_x_at) / Fold change /veh KRTAP10-11 (11738290_x_at) / RFU MYO3A (11730013_a_at) / Fold change /veh MYO3A (11730013_a_at) / RFU EBF3 (11725865_a_at) / Fold change /veh EBF3 (11725865_a_at) / RFU CAMK2N1 (11719241_x_at) / Fold change /veh CAMK2N1 (11719241_x_at) / RFU C5orf56 (11738088_a_at) / Fold change /veh C5orf56 (11738088_a_at) / RFU OLFML3 (11715873_a_at) / Fold change /veh OLFML3 (11715873_a_at) / RFU LOC100653217 /// NTM (11731650_a_at) / Fold change /veh LOC100653217 /// NTM (11731650_a_at) / RFU MAPK11 (11762145_a_at) / Fold change /veh MAPK11 (11762145_a_at) / RFU FIZ1 (11724087_x_at) / Fold change /veh FIZ1 (11724087_x_at) / RFU OASL (11726364_x_at) / Fold change /veh OASL (11726364_x_at) / RFU SOX15 (11748057_x_at) / Fold change /veh SOX15 (11748057_x_at) / RFU CD79A (11719716_a_at) / Fold change /veh CD79A (11719716_a_at) / RFU HIST1H1D (11736915_at) / Fold change /veh HIST1H1D (11736915_at) / RFU CASKIN2 (11723855_a_at) / Fold change /veh CASKIN2 (11723855_a_at) / RFU LOC730098 (11760151_x_at) / Fold change /veh LOC730098 (11760151_x_at) / RFU OR4N2 (11742367_at) / Fold change /veh OR4N2 (11742367_at) / RFU PRRT2 (11749266_a_at) / Fold change /veh PRRT2 (11749266_a_at) / RFU SNX32 (11753110_a_at) / Fold change /veh SNX32 (11753110_a_at) / RFU CDHR5 (11726645_a_at) / Fold change /veh CDHR5 (11726645_a_at) / RFU RCAN1 (11760418_a_at) / Fold change /veh RCAN1 (11760418_a_at) / RFU FAM167A (11723789_a_at) / Fold change /veh FAM167A (11723789_a_at) / RFU FAM26E (11764081_at) / Fold change /veh FAM26E (11764081_at) / RFU ISYNA1 (11749810_s_at) / Fold change /veh ISYNA1 (11749810_s_at) / RFU ACY1 (11761880_at) / Fold change /veh ACY1 (11761880_at) / RFU 11764098_at / Fold change /veh 11764098_at / RFU SAMD14 (11745864_x_at) / Fold change /veh SAMD14 (11745864_x_at) / RFU NPB (11741838_a_at) / Fold change /veh NPB (11741838_a_at) / RFU TMPRSS6 (11731388_a_at) / Fold change /veh TMPRSS6 (11731388_a_at) / RFU KRTAP10-2 (11738614_at) / Fold change /veh KRTAP10-2 (11738614_at) / RFU ARHGAP8 /// PRR5-ARHGAP8 (11727945_x_at) / Fold change /veh ARHGAP8 /// PRR5-ARHGAP8 (11727945_x_at) / RFU KRTAP5-7 /// NADSYN1 (11734609_at) / Fold change /veh KRTAP5-7 /// NADSYN1 (11734609_at) / RFU RASL12 (11751679_a_at) / Fold change /veh RASL12 (11751679_a_at) / RFU CDKN2B (11736163_a_at) / Fold change /veh CDKN2B (11736163_a_at) / RFU PRF1 (11729649_at) / Fold change /veh PRF1 (11729649_at) / RFU, ZNF638 /// ZNF638-IT1 / Fold change vs veh, ZNF638 /// ZNF638-IT1 / RFU, PANK3 / Fold change vs veh, PANK3 / RFU, SH3YL1 / Fold change vs veh, SH3YL1 / RFU, ZEB2 / Fold change vs veh, ZEB2 / RFU, NRIP1 / Fold change vs veh, NRIP1 / RFU, PTTG1IP / Fold change vs veh, PTTG1IP / RFU, CAPN2 / Fold change vs veh, CAPN2 / RFU, MED14 / Fold change vs veh, MED14 / RFU, SNORA58 / Fold change vs veh, SNORA58 / RFU, C1orf63 / Fold change vs veh, C1orf63 / RFU, LRRFIP1 / Fold change vs veh, LRRFIP1 / RFU, NDUFAF7 / Fold change vs veh, NDUFAF7 / RFU, SLC12A2 / Fold change vs veh, SLC12A2 / RFU, IBTK / Fold change vs veh, IBTK / RFU, ESF1 / Fold change vs veh, ESF1 / Fold change vs veh, TMEM50B / RFU, TAOK1 / Fold change vs veh, TAOK1 / RFU, ACBD3 / Fold change vs veh, ACBD3 / RFU, TMA16 / Fold change vs veh, TMA16 / RFU, RWDD3 / Fold change vs veh, RWDD3 / RFU, BCAT1 / Fold change vs veh, BCAT1 / RFU, EDEM3 / Fold change vs veh, EDEM3 / RFU, TMEM33 / Fold change vs veh, TMEM33 / RFU, WDR75 / Fold change vs veh, WDR75 / RFU, AHCTF1 / Fold change vs veh, AHCTF1 / RFU, TFRC / Fold change vs veh, TFRC / RFU, ZDHHC17 / Fold change vs veh, ZDHHC17 / RFU, NOM1 / Fold change vs veh, NOM1 / RFU, ARL8B / Fold change vs veh, ARL8B / RFU, ZBTB11 / Fold change vs veh, ZBTB11 / RFU, TAMM41 / Fold change vs veh, TAMM41 / RFU, KIAA1704 /// LOC100996395 / Fold change vs veh, KIAA1704 /// LOC100996395 / RFU, ING1 / Fold change vs veh, ING1 / RFU, TRMT61B / Fold change vs veh, TRMT61B / RFU, FUBP3 / Fold change vs veh, FUBP3 / RFU, TP53 / Fold change vs veh, TP53 / RFU, TNKS2 / Fold change vs veh, TNKS2 / RFU, ZFP14 / Fold change vs veh, ZFP14 / RFU, ACTR2 / Fold change vs veh, ACTR2 / RFU, PPP3R1 / Fold change vs veh, PPP3R1 / RFU, PIK3R1 / Fold change vs veh, PIK3R1 / RFU, HNRNPA1 / Fold change vs veh, HNRNPA1 / RFU, RNF170 / Fold change vs veh, RNF170 / RFU, ZNF28 / Fold change vs veh, ZNF28 / RFU, RNGTT / Fold change vs veh, RNGTT / RFU, OGT / Fold change vs veh, OGT / RFU, BRD1 / Fold change vs veh, BRD1 / RFU, MARS / Fold change vs veh, MARS / RFU, ZNF655 / Fold change vs veh, ZNF655 / RFU, FAHD1 / Fold change vs veh, FAHD1 / RFU, BDP1 / Fold change vs veh, BDP1 / RFU, LRRCC1 / Fold change vs veh, LRRCC1 / RFU, ARID1A / Fold change vs veh, ARID1A / RFU, ZNF146 / Fold change vs veh, ZNF146 / RFU, ZNF330 / Fold change vs veh, ZNF330 / RFU, GPN3 / Fold change vs veh, GPN3 / RFU, C9orf123 / Fold change vs veh, C9orf123 / RFU, N4BP2L2 / Fold change vs veh, N4BP2L2 / RFU, ARFIP1 / Fold change vs veh, ARFIP1 / RFU, FAM179B / Fold change vs veh, FAM179B / RFU, BCL10 / Fold change vs veh, BCL10 / RFU, UHRF1BP1L / Fold change vs veh, UHRF1BP1L / RFU, BET1 / Fold change vs veh, BET1 / RFU, CNOT2 / Fold change vs veh, CNOT2 / RFU, ZNF268 / Fold change vs veh, ZNF268 / Fold change vs veh, ZNF507 / RFU, DGCR2 / Fold change vs veh, DGCR2 / RFU, WDSUB1 / Fold change vs veh, WDSUB1 / Fold change vs veh, HSP90B1 /// MIR3652 / RFU, ADSS / Fold change vs veh, ADSS / RFU, GK / Fold change vs veh, GK / RFU, ZNF148 / Fold change vs veh, ZNF148 / RFU, TAF9 / Fold change vs veh, TAF9 / RFU, SLC1A5 / Fold change vs veh, SLC1A5 / RFU, SLMO2 / Fold change vs veh, SLMO2 / RFU, ABCC4 / Fold change vs veh, ABCC4 / RFU, LOC101060439 /// RAP1B / Fold change vs veh, LOC101060439 /// RAP1B / RFU, RFX7 / Fold change vs veh, RFX7 / RFU, GTPBP10 / Fold change vs veh, GTPBP10 / RFU, CNEP1R1 / Fold change vs veh, CNEP1R1 / RFU, BIVM-ERCC5 /// ERCC5 / Fold change vs veh, BIVM-ERCC5 /// ERCC5 / RFU, ILF3 / Fold change vs veh, ILF3 / RFU 11762660_at / Fold change /veh 11762660_at / RFU VCAN (11757783_s_at) / Fold change /veh VCAN (11757783_s_at) / RFU DDX43 (11728927_at) / Fold change /veh DDX43 (11728927_at) / RFU KRT8 (11758188_x_at) / Fold change /veh KRT8 (11758188_x_at) / RFU NKD1 (11759106_at) / Fold change /veh NKD1 (11759106_at) / RFU SRD5A1 (11742802_a_at) / Fold change /veh SRD5A1 (11742802_a_at) / RFU TPSAB1 /// TPSB2 (11721975_s_at) / Fold change /veh TPSAB1 /// TPSB2 (11721975_s_at) / RFU GSTM3 (11746129_a_at) / Fold change /veh GSTM3 (11746129_a_at) / RFU IL23R (11737362_x_at) / Fold change /veh IL23R (11737362_x_at) / RFU TMEM51 (11727254_a_at) / Fold change /veh TMEM51 (11727254_a_at) / RFU PIWIL2 (11732686_x_at) / Fold change /veh PIWIL2 (11732686_x_at) / RFU ORM1 (11744905_x_at) / Fold change /veh ORM1 (11744905_x_at) / RFU CCDC152 (11743942_at) / Fold change /veh CCDC152 (11743942_at) / RFU ECM1 (11717891_a_at) / Fold change /veh ECM1 (11717891_a_at) / RFU IL23R (11748794_a_at) / Fold change /veh IL23R (11748794_a_at) / RFU TNFAIP8L3 (11732012_x_at) / Fold change /veh TNFAIP8L3 (11732012_x_at) / RFU MBOAT4 (11741988_at) / Fold change /veh MBOAT4 (11741988_at) / RFU 11764193_at / Fold change /veh 11764193_at / RFU TMEM53 (11763286_at) / Fold change /veh TMEM53 (11763286_at) / RFU MAGEB2 (11727129_at) / Fold change /veh MAGEB2 (11727129_at) / RFU TMEM200A (11744735_a_at) / Fold change /veh TMEM200A (11744735_a_at) / RFU CCDC152 (11751479_a_at) / Fold change /veh CCDC152 (11751479_a_at) / RFU FAM211A (11726209_a_at) / Fold change /veh FAM211A (11726209_a_at) / RFU RGS16 (11746705_a_at) / Fold change /veh RGS16 (11746705_a_at) / RFU VCAN (11755009_s_at) / Fold change /veh VCAN (11755009_s_at) / RFU RHOB (11743442_s_at) / Fold change /veh RHOB (11743442_s_at) / RFU RGS16 (11720943_a_at) / Fold change /veh RGS16 (11720943_a_at) / RFU RGS16 (11720944_at) / Fold change /veh RGS16 (11720944_at) / RFU, VPS4B / Fold change vs veh, VPS4B / RFU, CREB1 / Fold change vs veh, CREB1 / RFU, DNAJC13 / Fold change vs veh, DNAJC13 / RFU, GNAQ / Fold change vs veh, GNAQ / RFU, CDK5R1 / Fold change vs veh, CDK5R1 / RFU, ZRANB3 / Fold change vs veh, ZRANB3 / RFU, CUL4A / Fold change vs veh, CUL4A / RFU, CCNY / Fold change vs veh, CCNY / RFU, UFL1 / Fold change vs veh, UFL1 / RFU, COG3 / Fold change vs veh, COG3 / RFU, DIAPH2 / Fold change vs veh, DIAPH2 / RFU, SKA2 / Fold change vs veh, SKA2 / RFU, AFF3 / Fold change vs veh, AFF3 / RFU, LMF1 / Fold change vs veh, LMF1 / RFU, IPO11 / Fold change vs veh, IPO11 / RFU, DFFB / Fold change vs veh, DFFB / RFU, FOXP1 / Fold change vs veh, FOXP1 / RFU, CARD8 / Fold change vs veh, CARD8 / RFU, STRN3 / Fold change vs veh, STRN3 / RFU, ADK / Fold change vs veh, ADK / RFU, RASSF2 / Fold change vs veh, RASSF2 / RFU, WIPF1 / Fold change vs veh, WIPF1 / RFU, LARP1B / Fold change vs veh, LARP1B / RFU, RASA1 / Fold change vs veh, RASA1 / RFU, RB1 / Fold change vs veh, RB1 / RFU, PPFIA1 / Fold change vs veh, PPFIA1 / RFU, MAT2A / Fold change vs veh, MAT2A / RFU, CCT5 / Fold change vs veh, CCT5 / RFU, WDR92 / Fold change vs veh, WDR92 / RFU, CUX1 / Fold change vs veh, CUX1 / RFU, TTC7A / Fold change vs veh, TTC7A / RFU, TMEM135 / Fold change vs veh, TMEM135 / RFU, DEPTOR / Fold change vs veh, DEPTOR / RFU, CPM / Fold change vs veh, CPM / RFU, DNAJB6 / Fold change vs veh, DNAJB6 / RFU, CACNA2D3 / Fold change vs veh, CACNA2D3 / RFU, DTX4 / Fold change vs veh, DTX4 / RFU, TFCP2 / Fold change vs veh, TFCP2 / RFU, GMCL1 /// GMCL1P1 / Fold change vs veh, GMCL1 /// GMCL1P1 / RFU, AEBP2 / Fold change vs veh, AEBP2 / RFU, SNHG1 /// SNORD22 /// SNORD25 /// SNORD26 /// SNORD27 /// SNORD28 /// SNORD29 /// SNORD31 / Fold change vs veh, SNHG1 /// SNORD22 /// SNORD25 /// SNORD26 /// SNORD27 /// SNORD28 /// SNORD29 /// SNORD31 / Fold change (Aza/veh), C12orf56 (ProbeSet 11735607_a_at) / Fold change (ACY-1035/veh), C12orf56 (ProbeSet 11735607_a_at) / Fold change (Aza/veh), FGFR1OP (ProbeSet 11751329_s_at) / Fold change (ACY-1035/veh), FGFR1OP (ProbeSet 11751329_s_at) / Fold change (Aza/veh), VPS36 (ProbeSet 11739960_a_at) / Fold change (ACY-1035/veh), VPS36 (ProbeSet 11739960_a_at) / RFU SYPL1 (11715823_x_at) / Fold change /veh SYPL1 (11715823_x_at) / RFU IGFBP7 (11715501_s_at) / Fold change /veh IGFBP7 (11715501_s_at) / RFU REEP3 (11722064_at) / Fold change /veh REEP3 (11722064_at) / RFU IGLL1 (11728026_x_at) / Fold change /veh IGLL1 (11728026_x_at): dose or concentration left out as unconfirmed.

Molecules are shown by their SMILES.

Consider `Nc1ncn([C@@H]2O[C@H](CO)[C@@H](O)[C@H]2O)c(=O)n1` [azacitidine], for which the “Fold change /veh CCDC152 (11751479_a_at)” value is 2.85.

Values taken from PMC5218480 (PLoS ONE, 2017).
